Results taken from patent US20230365592A1 (Agios Pharmaceuticals, Inc., priority 2022, published 2023).

target: T1, human PAH with the R408W mutation (Homo sapiens, UniProt P00439, R408W); test: Cell Based Phenylalanine Flux Assay; conditions: A375 cells expressing human R408W PAH; 24 hrs compound incubation; 13C-Tyrosine by LC-MS; average where tested multiple times; read-out: AC50;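 note: after compound treatment, cells received sepiapterin plus isotope-labelled Phenylalanine for 4 hours, then labelled Tyrosine in the medium was quantified, 10-point 2-fold dilution series run in duplicate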
T1 construct: expressed in transfected cells
T1 sequence (P00439 1-452 R408W): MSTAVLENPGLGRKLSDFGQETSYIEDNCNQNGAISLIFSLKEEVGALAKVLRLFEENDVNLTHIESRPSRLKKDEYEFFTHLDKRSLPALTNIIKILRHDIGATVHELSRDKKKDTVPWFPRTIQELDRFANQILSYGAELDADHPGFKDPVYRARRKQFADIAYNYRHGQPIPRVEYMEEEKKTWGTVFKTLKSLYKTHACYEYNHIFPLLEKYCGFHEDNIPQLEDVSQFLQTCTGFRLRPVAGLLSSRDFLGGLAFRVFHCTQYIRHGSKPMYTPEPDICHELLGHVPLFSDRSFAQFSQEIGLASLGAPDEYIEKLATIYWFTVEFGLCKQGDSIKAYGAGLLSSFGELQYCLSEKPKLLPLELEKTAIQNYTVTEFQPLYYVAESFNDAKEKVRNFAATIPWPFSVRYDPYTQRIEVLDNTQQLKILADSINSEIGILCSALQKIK

AC50 [nM]	Compound
> 5000	Cc1ccc2cc([C@H]3c4nc[nH]c4CCN3C(=O)c3nnc(C(C)(C)C)o3)nn2c1 [Example 1111, (R)-(5-(tert-butyl)-1,3,4-oxadiazol-2-yl)(4-(6-methylpyrazolo[1,5-a]pyridin-2-yl)-6,7-dihydro-1H-imidazo[4,5-c]pyridin-5(4H)-yl)methanone]
500 to 1000	CC(C)(F)c1nnc(C(=O)N2CCc3[nH]cnc3[C@H]2c2cc3ccc(F)cn3n2)o1 [Example 1114, (S)-(5-(2-fluoropropan-2-yl)-1,3,4-oxadiazol-2-yl)(4-(6-fluoropyrazolo[1,5-a]pyridin-2-yl)-6,7-dihydro-1H-imidazo[4,5-c]pyridin-5(4H)-yl)methanone]
> 5000	O=C(c1nnc(-c2ccn(C(F)F)n2)o1)N1CCc2[nH]cnc2[C@@H]1c1cc2c(Cl)cccn2n1 [Example 1119, (R)-(4-(4-chloropyrazolo[1,5-a]pyridin-2-yl)-6,7-dihydro-1H-imidazo[4,5-c]pyridin-5(4H)-yl)(5-(1-(difluoromethyl)-1H-pyrazol-3-yl)-1,3,4-oxadiazol-2-yl)methanone]
< 500	O=C(c1nnc(-c2cnn(C(F)F)c2)o1)N1CCc2[nH]cnc2[C@H]1c1cc2cccc(Cl)n2n1 [Example 1120, (S)-(4-(7-chloropyrazolo[1,5-a]pyridin-2-yl)-6,7-dihydro-1H-imidazo[4,5-c]pyridin-5(4H)-yl)(5-(1-(difluoromethyl)-1H-pyrazol-4-yl)-1,3,4-oxadiazol-2-yl)methanone]
1000 to 5000	O=C(c1nnc(-c2cnn(C(F)F)c2)o1)N1CCc2[nH]cnc2[C@@H]1c1cc2cccc(Cl)n2n1 [Example 1121, (R)-(4-(7-chloropyrazolo[1,5-a]pyridin-2-yl)-6,7-dihydro-1H-imidazo[4,5-c]pyridin-5(4H)-yl)(5-(1-(difluoromethyl)-1H-pyrazol-4-yl)-1,3,4-oxadiazol-2-yl)methanone]
500 to 1000	CC(C)(C)c1nnc(C(=O)N2CCc3[nH]cnc3[C@H]2c2cc3ccc(F)cn3n2)o1 [Example 1124, (S)-(5-(tert-butyl)-1,3,4-oxadiazol-2-yl)(4-(6-fluoropyrazolo[1,5-a]pyridin-2-yl)-6,7-dihydro-1H-imidazo[4,5-c]pyridin-5(4H)-yl)methanone]
< 500	Cn1nc(C(F)F)nc1C(=O)N1CCc2[nH]cnc2[C@H]1c1cc2ccc(C(F)(F)F)cn2n1 [Example 1126, (S)-(3-(difluoromethyl)-1-methyl-1H-1,2,4-triazol-5-yl)(4-(6-(trifluoromethyl)pyrazolo[1,5-a]pyridin-2-yl)-6,7-dihydro-1H-imidazo[4,5-c]pyridin-5(4H)-yl)methanone]
500 to 1000	Cn1ccc(-c2nnc(C(=O)N3CCc4[nH]cnc4[C@H]3c3cc4ccc(C(F)(F)F)cn4n3)o2)n1 [Example 1128, (S)-(5-(1-methyl-1H-pyrazol-3-yl)-1,3,4-oxadiazol-2-yl)(4-(6-(trifluoromethyl)pyrazolo[1,5-a]pyridin-2-yl)-6,7-dihydro-1H-imidazo[4,5-c]pyridin-5(4H)-yl)methanone]
1000 to 5000	Cn1ccc(-c2nnc(C(=O)N3CCc4[nH]cnc4[C@@H]3c3cc4ccc(C(F)(F)F)cn4n3)o2)n1 [Example 1129, (R)-(5-(1-methyl-1H-pyrazol-3-yl)-1,3,4-oxadiazol-2-yl)(4-(6-(trifluoromethyl)pyrazolo[1,5-a]pyridin-2-yl)-6,7-dihydro-1H-imidazo[4,5-c]pyridin-5(4H)-yl)methanone]
< 500	O=C(c1nnc(-c2cnn(C(F)F)c2)o1)N1CCc2[nH]cnc2[C@H]1c1cc2c(Cl)cccn2n1 [Example 1134, (S)-(4-(4-chloropyrazolo[1,5-a]pyridin-2-yl)-6,7-dihydro-1H-imidazo[4,5-c]pyridin-5(4H)-yl)(5-(1-(difluoromethyl)-1H-pyrazol-4-yl)-1,3,4-oxadiazol-2-yl)methanone]
1000 to 5000	O=C(c1nnc(-c2cnn(C(F)F)c2)o1)N1CCc2[nH]cnc2[C@@H]1c1cc2c(Cl)cccn2n1 [Example 1135, (R)-(4-(4-chloropyrazolo[1,5-a]pyridin-2-yl)-6,7-dihydro-1H-imidazo[4,5-c]pyridin-5(4H)-yl)(5-(1-(difluoromethyl)-1H-pyrazol-4-yl)-1,3,4-oxadiazol-2-yl)methanone]
< 500	O=C(c1ccnn1C(F)F)N1CCc2[nH]cnc2[C@H]1c1cc2ccc(C(F)(F)F)cn2n1 [Example 1138, (S)-(1-(difluoromethyl)-1H-pyrazol-5-yl)(4-(6-(trifluoromethyl)pyrazolo[1,5-a]pyridin-2-yl)-6,7-dihydro-1H-imidazo[4,5-c]pyridin-5(4H)-yl)methanone]

Further lines, the molecule ahead of its results:

Compound	AC50 [nM]
Cc1nnc(C(=O)N2CCc3[nH]cnc3[C@H]2c2cc3c(Cl)cccn3n2)o1 [Example 1106, (S)-(4-(4-chloropyrazolo[1,5-a]pyridin-2-yl)-6,7-dihydro-1H-imidazo[4,5-c]pyridin-5(4H)-yl)(5-methyl-1,3,4-oxadiazol-2-yl)methanone]	< 500
Cc1nnc(C(=O)N2CCc3[nH]cnc3[C@@H]2c2cc3c(Cl)cccn3n2)o1 [Example 1107, (R)-(4-(4-chloropyrazolo[1,5-a]pyridin-2-yl)-6,7-dihydro-1H-imidazo[4,5-c]pyridin-5(4H)-yl)(5-methyl-1,3,4-oxadiazol-2-yl)methanone]	1000 to 5000
CC(C)(F)c1nnc(C(=O)N2CCc3[nH]cnc3[C@@H]2c2cc3c(Cl)cccn3n2)o1 [Example 1108, (R)-(4-(4-chloropyrazolo[1,5-a]pyridin-2-yl)-6,7-dihydro-1H-imidazo[4,5-c]pyridin-5(4H)-yl)(5-(2-fluoropropan-2-yl)-1,3,4-oxadiazol-2-yl)methanone]	> 5000
Cc1ccc2cc([C@@H]3c4nc[nH]c4CCN3C(=O)c3ccnn3C(F)F)nn2c1 [Example 1112, (S)-(1-(difluoromethyl)-1H-pyrazol-5-yl)(4-(6-methylpyrazolo[1,5-a]pyridin-2-yl)-6,7-dihydro-1H-imidazo[4,5-c]pyridin-5(4H)-yl)methanone]	< 500
Cc1ccc2cc([C@H]3c4nc[nH]c4CCN3C(=O)c3ccnn3C(F)F)nn2c1 [Example 1113, (R)-(1-(difluoromethyl)-1H-pyrazol-5-yl)(4-(6-methylpyrazolo[1,5-a)pyridin-2-yl)-6,7-dihydro-1H-imidazo[4,5-c]pyridin-5(4H)-yl)methanone]	1000 to 5000
CC(C)(C)c1nnc(C(=O)N2CCc3[nH]cnc3[C@@H]2c2cc3cccc(Cl)n3n2)o1 [Example 1122, (R)-(5-(tert-butyl)-1,3,4-oxadiazol-2-yl)(4-(7-chloropyrazolo[1,5-a]pyridin-2-yl)-6,7-dihydro-1H-imidazo[4,5-c]pyridin-5(4H)-yl)methanone]	1000 to 5000
CC(C)(C)c1nnc(C(=O)N2CCc3[nH]cnc3[C@H]2c2cc3cccc(Cl)n3n2)o1 [Example 1123, (S)-(5-(tert-butyl)-1,3,4-oxadiazol-2-yl)(4-(7-chloropyrazolo[1,5-a]pyridin-2-yl)-6,7-dihydro-1H-imidazo[4,5-c]pyridin-5(4H)-yl)methanone]	< 500
O=C(c1nnc(C2CC2)o1)N1CCc2[nH]cnc2[C@H]1c1cc2cc(F)ccn2n1 [Example 1130, (S)-(5-cyclopropyl-1,3,4-oxadiazol-2-yl)(4-(5-fluoropyrazolo[1,5-a]pyridin-2-yl)-6,7-dihydro-1H-imidazo[4,5-c]pyridin-5(4H)-yl)methanone]	500 to 1000
O=C(c1nnc(C2CC2)o1)N1CCc2[nH]cnc2[C@@H]1c1cc2cc(F)ccn2n1 [Example 1131, (R)-(5-cyclopropyl-1,3,4-oxadiazol-2-yl)(4-(5-fluoropyrazolo[1,5-a]pyridin-2-yl)-6,7-dihydro-1H-imidazo[4,5-c]pyridin-5(4H)-yl)methanone]	1000 to 5000
O=C(c1ccnn1C(F)F)N1CCc2[nH]cnc2[C@H]1c1cc2cc(C(F)(F)F)ccn2n1 [Example 1132, (S)-(1-(difluoromethyl)-1H-pyrazol-5-yl)(4-(5-(trifluoromethyl)pyrazolo[1,5-a]pyridin-2-yl)-6,7-dihydro-1H-imidazo[4,5-c]pyridin-5(4H)-yl)methanone]	< 500
O=C(c1nnc(C2CC2)o1)N1CCc2[nH]cnc2[C@H]1c1cc2cccc(C(F)(F)F)n2n1 [Example 1140, (S)-(5-cyclopropyl-1,3,4-oxadiazol-2-yl)(4-(7-(trifluoromethyl)pyrazolo[1,5-a]pyridin-2-yl)-6,7-dihydro-1H-imidazo[4,5-c]pyridin-5(4H)-yl)methanone]	500 to 1000
Cn1nc(Cl)nc1C(=O)N1CCc2[nH]cnc2[C@H]1c1cc2cccc(Cl)n2n1 [Example 1142, (S)-(3-chloro-1-methyl-1H-1,2,4-triazol-5-yl)(4-(7-chloropyrazolo[1,5-a]pyridin-2-yl)-6,7-dihydro-1H-imidazo[4,5-c]pyridin-5(4H)-yl)methanone]	< 500
Cn1ncnc1C(=O)N1CCc2[nH]cnc2[C@H]1c1cc2cccc(C(F)(F)F)n2n1 [Example 1144, (S)-(1-methyl-1H-1,2,4-triazol-5-yl)(4-(7-(trifluoromethyl)pyrazolo[1,5-a]pyridin-2-yl)-6,7-dihydro-1H-imidazo[4,5-c]pyridin-5(4H)-yl)methanone]	500 to 1000
Cc1cccc2cc([C@@H]3c4nc[nH]c4CCN3C(=O)c3ocnc3C(F)(F)F)nn12 [Example 1146, (S)-(4-(7-methylpyrazolo[1,5-a]pyridin-2-yl)-6,7-dihydro-1H-imidazo[4,5-c]pyridin-5(4H)-yl)(4-(trifluoromethyl)oxazol-5-yl)methanone]	< 500
